These results are taken from US20110294874A1, “DIAGNOSIS AND THERAPY OF ORGAN DYSFUNCTION USING SPHINGANINE-1-PHOSPHATE” (The Trustees of Columbia University in the City of New York, priority 2008, published 2011).

Values joined by “and” are separate entries in the source; they are usually repeats but may differ in a detail not shown here. Equal values may be shown once.

For assay [1], the system named is C57BL/6 mice subjected to liver IR. As to the kind of experiment: Apoptosis (TUNEL, DNA laddering, caspase 3) and F-actin (phalloidin) in liver and kidney after liver IR. Format: in vivo, mouse. How it is done:
(§1) Mice were anesthetized with intraperitoneal pentobarbital (50 mg/kg or to effect). Mice were placed under a heating lamp and on a 37° C. heating pad. After a midline laparotomy and intraperitoneal application of 20 U heparin, left lateral and median lobes of the liver were subjected to ischemia with a microaneurysm clip occluding the hepatic triad above the bifurcation. This method of partial hepatic ischemia results in a segmental (˜70%) hepatic ischemia but spares the right lobe of the liver and prevents mesenteric venous congestion by allowing portal decompression throughout the right and caudate lobes of the liver. The liver was then repositioned in the peritoneal cavity in its original location for 60 minutes. The liver was kept moist with gauze soaked in 0.9% normal saline. The body temperature was monitored by an infrared temperature sensor (Linear Laboratories, Fremont, Calif.) every 10 min. and maintained at 37° C. using a heating lamp and a heating pad. After 60 minutes, the liver was reperfused and the wound closed. Sham-operated mice were subjected to laparotomy and identical liver manipulations without vascular occlusion. Two, 4 and 24 hr after reperfusion, plasma was collected for the measurement of alanine aminotransferase (ALT), a common indicator of liver damage, as well as creatinine (Cr) a common indicator of kidney damage. The liver tissue subjected to IR was collected to measure percent liver necrosis (2, 4 and 24 hr after IR), neutrophil infiltration (with immunohistochemistry, 4 and 24 hr after IR), apoptosis (with terminal deoxynucleotidyl transferase-mediated dUTP nick end labeling staining, caspase 3 immunoblotting and DNA laddering, 24 hr after IR), and inflammation by RT-PCR for pro-inflammatory mRNAs (4 hr after IR).
Apoptosis was detected in both liver and kidney taken from mice subjected to liver IR, through TUNEL staining, DNA laddering and caspase 3 fragmentation.

The test system is the same in assay [2]. As to the kind of experiment: Survival of mice after liver IR. The class given is in vivo, mouse. The conditions noted are these: 24 hours post liver IR. The source says:
Without Sg1P administration, 20% of mice subjected to liver IR stayed alive after 1 week. With Sg1P treatment, 50% of mice subjected to liver IR that received Sg1P remained alive after the same time period.

The test system is the same in assay [3]. Briefly: Liver H&E histology after liver IR (percent necrosis, Suzuki score). The class given is in vivo, mouse. To be noted: liver IR; for Suzuki score (0 = no injury, 12 = maximal injury): H&E liver. As for the experimental part: as §1
Livers were also analyzed for the degree of hepatocellular damage using the Suzuki's criteria (Suzuki et al., Transplantation 1993, Vol. 55, pp. 1265-1272). To obtain a Suzuki score, 3 liver injury indices are graded: sinusoidal congestion (0-4), hepatocyte necrosis (0-4), and ballooning degeneration (0-4) are graded for a total score of 0-12. No necrosis, congestion, or centrilobular ballooning is given a score of 0 whereas severe congestion/ballooning and >60% lobular necrosis is given a value of 4.

For assay [4], the system named is ERK/MAPK, Akt, HSP27. Briefly: Immunoblotting/RT-PCR of liver and kidney of mice injected with Sg1P. The conditions noted are these: i.v. injection. The class given is in vivo, mouse. How it is done: Mice were injected with sphinganine 1-phophate intravenously and their kidney and liver tissues were extracted at 15 minutes after injection (for immunoblotting of phosphorylated proteins) or at 5 hours after injection (for RT-PCR). […] HSP27 is a known F-actin stabilizing and anti-apoptotic protein.

The subject of assay [5] is Nephrectomized C57BL/6 mice with liver IR. Briefly: Nephrectomized C57BL/6 mice with 45 min. liver IR: serum ALT. Format: in vivo, mouse. How it is done:
Normally, 1 hour of liver IR results in serum ALT increasing to 15076±1174 U/L (N=6) 24 hours later. In nephrectomized mice, however, the rise in ALT was more severe, and it rose to 20237±2628 U/L (N=3) after only 45 minutes of liver IR. The nephrectomized mice were also less responsive to Sg1P treatment.

Assay [6] concerns IHUVEC monolayers. Briefly: Evans blue dye-albumin permeability of IHUVEC monolayers. The class given is cell-based, human. As for the experimental part:
IHUVEC—immortalized human umbilical vein endothelial cells (ATCC, P.O. Box 1549 Manassas, Va. 20108) or HRGEC—human renal glomerular endothelial cells (ScienCell Research Laboratories, 6076 Corte Del Cedro Carlsbad, Calif. 92011) were cultured within a humidified atmosphere of 5% CO2 in air and grown to confluence. When confluent, the cells were trypsinized and seeded onto 0.45 μm pore size polycarbonate filters at the base of inserts of 6.5 mm diameter Transwell chambers and cultured until confluence.
Human endothelial cell permeability was assessed with the Evans blue dye extravasation assay (Awad et al., 2006). The permeability characteristics of the resulting confluent monolayers were assessed by following the diffusion of albumin-conjugated Evan's blue dye from the upper to lower compartments of the Transwell chambers. After addition of dye, chambers were shaken and allowed to equilibrate for 10-30 min at 37° C. After equilibration, stimuli were added and dye levels in lower compartments intermittently assayed by spectrophotometric analysis.
The addition of TNF-α or thrombin induces apoptosis and increases cell permeability in cultured endothelial cells.

Where [7] appears, read: nephrectomized, 45 min. liver IR.

As for `CCCCCCCCCCCCCCC[C@@H](O)[C@@H](N)COP(=O)(O)O` [Sg1P, sphinganine-1-phosphate], in assay [1], the “Caspase 3 fragmentation in liver and kidney” value is reported as “significantly reduced”; the “TUNEL staining, DNA laddering in liver and kidney” value is reported as “significantly reduced”. In assay [1] (vs vehicle), the “F-actin structure in liver and kidney (phalloidin)” value is recorded as “better-preserved F-actin structure”. The same compound registered a Survival rate in assay [2] of about 90%. For the same compound, the “Suzuki score (0 = no injury, 12 = maximal injury)” value in assay [3] was 5.2 ± 0.8. For the same compound, the “Suzuki score (0 = no injury, 12 = maximal injury)” value in assay [3] (listed as sphinganine 1-phosphate) worked out at 5.2±0.8. In addition, in assay [3] (H&E), the “Average percent necrotic areas in liver” value came out at 44±8%. In assay [4] (tissues 15 minutes after injection), the “Phosphorylation of ERK/MAPK, Akt and HSP27 in liver and kidney” value is “resulted in phosphorylation”. The “HSP27 mRNA expression in liver and kidney” value in assay [4] (tissues 5 hours after injection) is listed as “induced”. Further, the “Reduction in the severity of liver injury (change in ALT levels)” value in assay [5] (nephrectomized mice) came out at 16%. In addition, in assay [5] (setting [7]), the “ALT (24 hrs. post-IR), individual mice” value was 15993.65 U/L and 19276.19 U/L and 15819.05 U/L; the “ALT (24 hrs. post-IR), mean” value was 17029±1124 U/L and 17029.63 U/L. Moreover, the “Thrombin-induced permeability (albumin leak)” value in assay [6] (5 U/ml thrombin) is given as “same cytoprotective effect”. Also, the “TNF-α-induced permeability (albumin leak)” value in assay [6] (TNF-α 50 ng/ml or 100 ng/ml, concurrent Sg1P) is recorded as “reduced the permeability of the cells to levels comparable to control”.
